Measurements as given in US20210147381A1, “1,2,3,4-SUBSTITUTED QUINOLINE COMPOUNDS AS SIP MODULATORS” (AbbVie Deutschland GmbH & Co. KG, priority 2017, published 2021).
pEC50: −log10 of the molar value.

Legend:
Assay type in all cases: cell-based
[1] = molecular target: T1, human S1P5 receptor (S1PR5) (Homo sapiens, UniProt Q9H228); experiment: Intracellular Ca2+ release (method 1), agonist potency and efficacy, S1P5; settings: for Emax: read-out: hS1P5 EMax; for pEC50: recombinant CHO-K1 cells expressing human S1PR5, aequorin, Gq/i5, Ca2+ release, read-out: S1P5 EC50 range
T1 construct: host or cells: CHO-K1
T1 sequence (Q9H228 whole entry): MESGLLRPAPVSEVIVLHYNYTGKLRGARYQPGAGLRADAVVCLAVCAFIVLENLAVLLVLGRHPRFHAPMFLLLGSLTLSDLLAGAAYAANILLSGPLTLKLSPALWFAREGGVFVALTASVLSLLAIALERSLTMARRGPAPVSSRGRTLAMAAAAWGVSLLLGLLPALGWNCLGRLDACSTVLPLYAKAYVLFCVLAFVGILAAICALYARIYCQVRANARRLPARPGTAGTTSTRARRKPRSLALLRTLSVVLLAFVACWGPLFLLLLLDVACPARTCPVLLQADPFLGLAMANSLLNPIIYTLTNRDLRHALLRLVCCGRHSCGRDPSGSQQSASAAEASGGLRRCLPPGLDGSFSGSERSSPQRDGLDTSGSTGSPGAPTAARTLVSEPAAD
Protocol: (§1) Agonistic activity and efficacy of compounds was assessed in recombinant cells using method 1 described below.
(§2) Agonist potency and efficacy were assessed by measurement of intracellular Ca^2+ release. Recombinant CHO-K1 cells (Euroscreen, Brussels, Belgium) expressing human S1PR5, S1PR1, S1PR3 or S1PR4 receptors, aequorin, and GTP binding protein Gq/i5 were cultured using a medium containing nutrient mixture F-12 Ham (Sigma-Aldrich) with 10% FBS, and 100 μg/mL gentamicin and equilibrated at 5% CO2.
(§3) 15,000 cells in 20 μL medium were seeded into Biocoat poly-D-Lysine coated 384 well plates (Becton Dickinson #35-6663) and grown to 95% confluency after 24 h.
(§4) Culture medium was replaced by an assay buffer consisting of HBBS with Ca^2+ and Mg^2+ (Invitrogen #14025-050), 20 mmol/L Hepes (Sigma-Aldrich #H-3375), 2.5 mmol/L probenecid (Sigma-Aldrich #P-8761, and 0.1% BSA (Sigma-Aldrich #A-7030) pH 7.4. The Calcium 5 no-wash FLIPR assay kit (Molecular Devices #5000625) was performed as described in the kit instructions. Cells were incubated with Calcium 5 dye for 1 h at 37° C., 5% CO2 in the dark. After 45 min adaptation to RT assessment of agonist stimulation of intracellular Ca^2+ release was performed by addition of test compounds at various concentrations obtained by serial dilution. Phospho-fingolimod was used as positive control and reference agonist (intrinsic activity 100%).
(§5) Agonism of test compounds at the human S1Px receptors were characterized by the EC50 values (potencies) deduced from a nonlinear 4 parametric logistic curve fit to the measured fluorescence data after normalization to the lower and upper plateaus of the fitted reference agonist's (phospho-fingolimod)effect curve and by their efficacy (Emax) values represented by their maximum achievable effects in % of the reference agonist's efficacy, which is defined as an Emax of 100%.

[2] = molecular target: T2, human S1P4 receptor (S1PR4) (Homo sapiens, UniProt O95977); experiment: Intracellular Ca2+ release (method 1), agonist potency, S1P4; settings: CHO-K1 cells expressing human S1PR4
T2 construct: host or cells: CHO-K1
T2 sequence (O95977 1-384): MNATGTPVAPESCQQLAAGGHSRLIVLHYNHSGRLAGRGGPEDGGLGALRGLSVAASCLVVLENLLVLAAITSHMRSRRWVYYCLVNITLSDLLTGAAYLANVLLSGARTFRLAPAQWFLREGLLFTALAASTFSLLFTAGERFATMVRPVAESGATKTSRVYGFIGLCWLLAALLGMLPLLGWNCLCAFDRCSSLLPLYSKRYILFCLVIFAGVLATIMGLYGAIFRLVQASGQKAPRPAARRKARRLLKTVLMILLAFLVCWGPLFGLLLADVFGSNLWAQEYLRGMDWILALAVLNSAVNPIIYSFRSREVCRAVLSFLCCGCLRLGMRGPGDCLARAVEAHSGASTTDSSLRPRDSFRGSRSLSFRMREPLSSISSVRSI
Protocol: as §1, §2, §3, §4, §5

[3] = molecular target: T3, human S1P1 receptor (S1PR1) (Homo sapiens, UniProt P21453); experiment: Intracellular Ca2+ release (method 1), agonist potency, S1P1; settings: CHO-K1 cells expressing human S1PR1; cells given as bound
T3 construct: host or cells: CHO-K1
T3 sequence (P21453 whole entry): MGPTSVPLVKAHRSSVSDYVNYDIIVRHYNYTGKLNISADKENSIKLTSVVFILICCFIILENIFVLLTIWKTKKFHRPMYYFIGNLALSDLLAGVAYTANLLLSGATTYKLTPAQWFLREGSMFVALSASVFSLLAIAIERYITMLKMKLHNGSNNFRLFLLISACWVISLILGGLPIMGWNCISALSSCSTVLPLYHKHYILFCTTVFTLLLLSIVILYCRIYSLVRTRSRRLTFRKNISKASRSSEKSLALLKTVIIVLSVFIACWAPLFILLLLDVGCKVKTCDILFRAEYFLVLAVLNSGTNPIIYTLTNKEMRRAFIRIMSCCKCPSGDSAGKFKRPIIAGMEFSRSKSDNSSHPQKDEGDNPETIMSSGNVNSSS
Protocol: as §1, §2, §3, §4, §5

[4] = maximum effect in % of reference agonist phospho-fingolimod (100%)

SMILES	Emax [1, 4]	pEC50 [1]	pEC50 ([2]; cells given as bound)	pEC50 [3]	pEC50 [2]	hS1P5 EMax [1, 4]
O=C(O)CN1Cc2ccc(OCc3c(Cl)cccc3Cl)cc2C2(CC2)C1 [Compound 12, 2-(6′-((2,6-Dichlorobenzyl)oxy)-1′H-spiro[cyclopropane-1,4′-isoquinolin]-2′(3′H)-yl)acetic acid]	50 to 100%	6.00 to 7.00	–	< 6.00	6.00 to 7.00	–
O=C(O)CCCN1Cc2ccc(OCc3ccc(Cl)cc3)cc2C2(CC2)C1 [Compound 16, 4-(6′-((4-Chlorobenzyl)oxy)-1′H-spiro[cyclopropane-1,4′-isoquinolin]-2′(3′H)-yl)butanoic acid]	< 50%	6.00 to 7.00	–	< 6.00	6.00 to 7.00	–
O=C(O)CCCN1Cc2ccc(OCc3ccc(F)cc3)cc2C2(CC2)C1 [Compound 17, 4-(6′-((4-Fluorobenzyl)oxy)-1′H-spiro[cyclopropane-1,4′-isoquinolin]-2′(3′H)-yl)butanoic acid]	50 to 100%	6.00 to 7.00	< 6.00	< 6.00	–	–
CC(=O)O.O=C(O)CCN1Cc2ccc(C#Cc3c(Cl)cccc3Cl)cc2C2(CC2)C1 [Compound 30, 3-(6′-((2,6-dichlorophenyl)ethynyl)-1′H-spiro[cyclopropane-1,4′-isoquinolin]-2′(3′H)-yl)propanoic acid acetic acid salt (1:1)]	–	–	–	–	6.00 to 7.00	++ (EMax = 50-100, determined with method 1)
CCOc1cc(C)c(C#Cc2ccc3c(c2)C2(CC2)CN(CCCC(=O)O)C3)cn1 [Compound 49, 4-(6′-((6-ethoxy-4-methylpyridin-3-yl)ethynyl)-1′H-spiro[cyclopropane-1,4′-isoquinolin]-2′(3′H)-yl)butanoic acid]	50 to 100%	7.00 to 8.00	< 6.00	< 6.00	–	–
CCOc1ncc(C#Cc2ccc3c(c2)C2(CC2)CN(CCCC(=O)O)C3)cc1F [Compound 51, 4-(6′-((6-ethoxy-5-fluoropyridin-3-yl)ethynyl)-1′H-spiro[cyclopropane-1,4′-isoquinolin]-2′(3′H)-yl)butanoic acid]	50 to 100%	6.00 to 7.00	< 6.00	< 6.00	–	–
CC(C)Oc1ccc(C#Cc2ccc3c(c2)C2(CC2)CN(CCCC(=O)O)C3)nc1 [Compound 52, 4-(6′-((5-isopropoxypyridin-2-yl)ethynyl)-1′H-spiro[cyclopropane-1,4′-isoquinolin]-2′(3′H)-yl)butanoic acid]	> 100%	6.00 to 7.00	< 6.00	< 6.00	–	–
O=C(O)CCCN1Cc2ccc(C#Cc3ccc4c(c3)OCO4)cc2C2(CC2)C1 [Compound 56, 4-(6′-(benzo[d][1,3]dioxol-5-ylethynyl)-1′H-spiro[cyclopropane-1,4′-isoquinolin]-2′(3′H)-yl)butanoic acid]	50 to 100%	5.00 to 6.00	< 6.00	< 6.00	–	–
COc1ccc(C#Cc2ccc3c(c2)C2(CC2)CN(CCCC(=O)O)C3)c(C)n1 [Compound 57, 4-(6′-((6-methoxy-2-methylpyridin-3-yl)ethynyl)-1′H-spiro[cyclopropane-1,4′-isoquinolin]-2′(3′H)-yl)butanoic acid]	50 to 100%	5.00 to 6.00	< 6.00	< 6.00	–	–
CC(CC(=O)O)CN1Cc2ccc(C#Cc3ccc(C(C)C)cc3)cc2C2(CC2)C1 (stereo not drawn) [Compound 60, 4-(6′-((4-isopropylphenyl)ethynyl)-1′H-spiro[cyclopropane-1,4′-isoquinolin]-2′(3′H)-yl)-3-methylbutanoic acid]	50 to 100%	> 8.00	< 6.00	< 6.00	–	–

The next lines start with results.

Emax [1, 4]	pEC50 [1]	pEC50 ([2]; cells given as bound)	pEC50 [3]	pEC50 [2]	SMILES	hS1P5 EMax [1, 4]
50 to 100%	5.00 to 6.00	< 6.00	< 6.00	–	O=C(O)CCCN1Cc2ccc(C#Cc3ccc(=O)n(CC4CC4)c3)cc2C2(CC2)C1 [Compound 4, 4-(6′-((1-(cyclopropylmethyl)-6-oxo-1,6-dihydropyridin-3-yl)ethynyl)-1′H-spiro[cyclopropane-1,4′-isoquinolin]-2′(3′H)-yl)butanoic acid]	–
50 to 100%	6.00 to 7.00	< 6.00	< 6.00	–	CCOc1ccc(C#Cc2ccc3c(c2)C2(CC2)CN(CC(=O)O)C3)cc1 [Compound 5, 2′-(carboxymethyl)-6′-((4-ethoxyphenyl)ethynyl)-2′,3′-dihydro-1′H-spiro[cyclopropane-1,4′-isoquinolin]-2′-ium 2,2,2-trifluoroacetate]	–
> 100%	6.00 to 7.00	< 6.00	< 6.00	–	CC(C)c1ccc(C#Cc2ccc3c(c2)C2(CC2)CN(CC(=O)O)C3)cc1 [Compound 6, 2′-(carboxymethyl)-6′-((4-isopropylphenyl)ethynyl)-2′,3′-dihydro-1′H-spiro[cyclopropane-1,4′-isoquinolin]-2′-ium 2,2,2-trifluoroacetate]	–
50 to 100%	6.00 to 7.00	< 6.00	< 6.00	–	CC(C)Oc1ccc(C#Cc2ccc3c(c2)C2(CC2)CN(CC2(C(=O)O)CC2)C3)cc1 [Compound 8, 1-((6′-((4-isopropoxyphenyl)ethynyl)-1′H-spiro[cyclopropane-1,4′-isoquinolin]-2′(3′H)-yl)methyl)cyclopropanecarboxylic acid]	–
> 100%	6.00 to 7.00	< 6.00	< 6.00	–	O=C(O)C1(CN2Cc3ccc(C#Cc4ccc(OC5CCCC5)nc4)cc3C3(CC3)C2)CC1 [Compound 9, 1-((6′-((6-(cyclopentyloxy)pyridin-3-yl)ethynyl)-1′H-spiro[cyclopropane-1,4′-isoquinolin]-2′(3′H)-yl)methyl)cyclopropanecarboxylic acid]	–
50 to 100%	6.00 to 7.00	< 6.00	< 6.00	–	CCOc1ccc(C#Cc2ccc3c(c2)C2(CC2)CN(CCCC(=O)O)C3)cn1 [Compound 50, 4-(6′-((6-ethoxypyridin-3-yl)ethynyl)-1′H-spiro[cyclopropane-1,4′-isoquinolin]-2′(3′H)-yl)butanoic acid]	–
50 to 100%	6.00 to 7.00	< 6.00	< 6.00	–	CCOc1ccc(C#Cc2ccc3c(c2)C2(CC2)CN(CCCC(=O)O)C3)c(C)n1 [Compound 53, 4-(6′-((6-ethoxy-2-methylpyridin-3-yl)ethynyl)-1′H-spiro[cyclopropane-1,4′-isoquinolin]-2′(3′H)-yl)butanoic acid]	–
50 to 100%	5.00 to 6.00	< 6.00	< 6.00	–	CCOc1ccc(C#Cc2ccc3c(c2)C2(CC2)CN(CCCC(=O)O)C3)nc1 [Compound 54, 4-(6′-((5-ethoxypyridin-2-yl)ethynyl)-1′H-spiro[cyclopropane-1,4′-isoquinolin]-2′(3′H)-yl)butanoic acid]	–
< 50%	5.00 to 6.00	< 6.00	< 6.00	–	COc1ncc(C#Cc2ccc3c(c2)C2(CC2)CN(CCCC(=O)O)C3)cc1F [Compound 55, 4-(6′-((5-fluoro-6-methoxypyridin-3-yl)ethynyl)-1′H-spiro[cyclopropane-1,4′-isoquinolin]-2′(3′H)-yl)butanoic acid]	–
50 to 100%	> 8.00	< 6.00	< 6.00	–	CC(CC(=O)O)CN1Cc2ccc(C#Cc3ccc(OC(C)C)nc3)cc2C2(CC2)C1 (stereo not drawn) [Compound 59, 4-(6′-((6-isopropoxypyridin-3-yl)ethynyl)-1′H-spiro[cyclopropane-1,4′-isoquinolin]-2′(3′H)-yl)-3-methylbutanoic acid]	–
